Test results published in article PMC9097471, “Development of Selective Phosphatidylinositol 5-Phosphate 4-Kinase γ Inhibitors with a Non-ATP-competitive, Allosteric Binding Mode” (Journal of Medicinal Chemistry, 2022).
Values after ≈ are worked out from the molar mass of the structure shown. Like-named read-outs stand apart in the source and are kept apart here.

Experiments:
PI5P4Kα-WT = target: T1, PI5P4Kα-WT (Homo sapiens, UniProt P48426); experiment: ADP-Glo inhibition assay; conditions: for PI5P4Kα pIC50: ADP-Glo
T1 sequence (P48426 1-406): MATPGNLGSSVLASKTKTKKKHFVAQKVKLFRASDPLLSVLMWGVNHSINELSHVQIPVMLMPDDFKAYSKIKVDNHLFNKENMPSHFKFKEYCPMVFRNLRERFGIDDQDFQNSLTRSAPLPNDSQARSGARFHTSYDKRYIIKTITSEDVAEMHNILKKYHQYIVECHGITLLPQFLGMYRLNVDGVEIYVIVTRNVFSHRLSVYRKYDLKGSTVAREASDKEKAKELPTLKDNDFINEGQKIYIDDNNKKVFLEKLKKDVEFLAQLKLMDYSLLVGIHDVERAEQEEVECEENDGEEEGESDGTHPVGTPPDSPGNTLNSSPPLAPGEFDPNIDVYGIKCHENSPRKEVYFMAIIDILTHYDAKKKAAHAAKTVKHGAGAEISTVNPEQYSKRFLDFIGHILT
From the text: (§2) To enable direct comparisons, Promega’s ADP-Glo reporter assay was developed using a mutant form of the kinase. […] To mitigate concerns about being misled by the use of the PI5P4Kγ+ construct and the possible introduction of PI5P4Kα activity into the molecules, our screening cascade included the measurement of ADP-Glo activity at PI5P4Kα-WT (and PI5P4Kβ-WT to fully understand emerging selectivity profiles).

PI5P4Kγ+ = target: T2, PI5P4Kγ+ (Homo sapiens, UniProt Q8TBX8, D138G/D197E/E133P/E135D/E153T/E196G/G136S/G139A/N195G/S132L/S134N); experiment: ADP-Glo inhibition assay; assay type: biochemical; conditions: for IC50: ADP-Glo
T2 construct: GST (N, cleaved yes); made in house; host or cells: E. coli BL21(DE3), pGEX6P
T2 sequence (Q8TBX8 with tags, fused parts or gaps INS131LPN/S132D/E133S/S134Q/E135A/G136R/D138G/G139A/E153T/N195G/E196G/D197E): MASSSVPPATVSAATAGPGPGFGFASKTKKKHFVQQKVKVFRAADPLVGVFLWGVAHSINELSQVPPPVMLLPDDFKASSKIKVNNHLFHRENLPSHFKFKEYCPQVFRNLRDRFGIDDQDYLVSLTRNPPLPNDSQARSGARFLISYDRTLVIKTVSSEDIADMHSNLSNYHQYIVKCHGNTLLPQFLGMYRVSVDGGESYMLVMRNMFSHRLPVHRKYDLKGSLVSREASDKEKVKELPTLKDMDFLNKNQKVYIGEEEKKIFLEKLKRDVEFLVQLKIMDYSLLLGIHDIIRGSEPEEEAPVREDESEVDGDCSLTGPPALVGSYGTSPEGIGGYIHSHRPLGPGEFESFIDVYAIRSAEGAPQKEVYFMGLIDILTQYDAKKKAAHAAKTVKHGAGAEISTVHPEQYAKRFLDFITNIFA
Protocol: Recombinant mutant PI5P4Kγ+ was prepared essentially as described previously.[25] […] Cultures were induced with 0.4 mM IPTG and probe sonicated in the presence of protease inhibitors. The GST fusion protein of PI5P4Kγ+ was harvested by binding to glutathione sepharose beads (Cytiva) and cleaved in situ with 50U of PreScission protease (Cytiva) for 4 h at 4 °C. The cleaved protein was further purified by size-exclusion chromatography (AKTA Pure, Cytiva). The protein purity was confirmed by sodium dodecyl sulphate–polyacrylamide gel electrophoresis, and the concentration was determined by colorimetric assay (Bio-Rad).
(§1) Statistical analysis was performed using nonparametric testing in Prism 8 (GraphPad). Activity pIC50 values and in vivo binding pEC50 values were estimated using a 4-parameter fit (Dotmatics).

PI5P4Kβ-WT = target: T3, PI5P4Kβ-WT (Homo sapiens, UniProt P78356); experiment: ADP-Glo inhibition assay; conditions: for PI5P4Kβ pIC50: ADP-Glo
T3 sequence (P78356 1-416): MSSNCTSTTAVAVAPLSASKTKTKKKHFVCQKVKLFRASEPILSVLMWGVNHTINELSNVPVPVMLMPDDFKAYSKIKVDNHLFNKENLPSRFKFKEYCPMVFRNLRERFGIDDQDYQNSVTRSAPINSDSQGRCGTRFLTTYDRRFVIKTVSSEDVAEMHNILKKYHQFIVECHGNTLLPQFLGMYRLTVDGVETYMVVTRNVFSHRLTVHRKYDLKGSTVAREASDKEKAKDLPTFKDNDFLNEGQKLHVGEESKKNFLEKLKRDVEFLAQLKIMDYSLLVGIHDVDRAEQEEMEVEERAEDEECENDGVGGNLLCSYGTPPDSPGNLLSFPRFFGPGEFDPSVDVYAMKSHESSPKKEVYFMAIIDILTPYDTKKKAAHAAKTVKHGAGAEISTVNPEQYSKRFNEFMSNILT
From the text: as §2

PI5P4Kγ-WT [1] = target: T4, PI5P4Kγ-WT (Homo sapiens, UniProt Q8TBX8); experiment: Thermal shift assay; conditions: read-out: ΔTm PI5P4Kγ WT, thermal shift, compound 63 μM
T4 sequence (Q8TBX8 1-421): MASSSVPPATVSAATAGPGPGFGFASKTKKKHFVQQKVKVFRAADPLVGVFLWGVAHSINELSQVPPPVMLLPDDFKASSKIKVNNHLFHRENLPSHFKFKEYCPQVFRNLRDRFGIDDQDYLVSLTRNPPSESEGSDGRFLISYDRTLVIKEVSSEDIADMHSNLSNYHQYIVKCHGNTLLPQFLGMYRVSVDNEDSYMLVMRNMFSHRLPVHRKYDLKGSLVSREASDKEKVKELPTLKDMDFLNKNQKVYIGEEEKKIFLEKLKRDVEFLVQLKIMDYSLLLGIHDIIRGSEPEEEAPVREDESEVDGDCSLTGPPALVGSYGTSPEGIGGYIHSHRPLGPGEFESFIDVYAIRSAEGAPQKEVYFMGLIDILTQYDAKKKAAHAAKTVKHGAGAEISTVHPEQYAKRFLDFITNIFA

Kinetic solubility = assay type: physicochemical; conditions: PBS buffer, PBS pH 7.4
Protocol: Kinetic solubility analysis was performed by Charles River Laboratories Inc. (ADME-SOP-01). Compound in
DMSO at 10 mM was diluted to 200 µM in both DMSO and buffer (0.1 M PBS, pH 7.4, 2% DMSO final), and
an aliquot of the 200 µM DMSO solution was diluted to 10 µM, and all dilutions were equilibrated for 2 hours. […]
Compound 9 was purchased from Am binter (Amb16536894) and was determined by UPLC to have purity >95%.
All other compounds were synthesised as described below , and all tested compounds have purity >95% by UPLC

Plasma protein binding = assay type: in vitro ADME; conditions: Mouse plasma protein binding; read-out: mPPB (converted)
Protocol: Plasma protein binding analysis was performed by Charles River Laboratories Inc. (ADME-SOP-90). Briefly, compounds in DMSO (10 µM, 0.5% DMSO final) were added to mouse plasma and dialysed against buffer for 4 hours at 37 °C. The compound concentration in each of the plasma and buffer compartments was determined by mass spectrometry and used to calculate the percentage compound bound. […]

[2] = Chromatographic LogD (HPLC method); assay type: physicochemical; conditions: pH 7.4, read-out: mchrom log D7.4
Protocol: 5-100% gradient of MeCN in 50mM NH4OAc in H 2O adjusted to pH 7.4. […]

[3] = Liver microsomal stability; assay type: in vitro ADME; conditions: liver microsomes; Human liver microsomal hepatic stability; read-out: HLM t1/2
PI5P4Kγ [4] = target: PI5P4Kγ; set-up: method as in Rosenthal 2011, Davis 2011, Karaman 2008, Klaeger 2017; conditions: public kinase panel data; ref Rosenthal 2011, Davis 2011, Karaman 2008, Klaeger 2017; cited from earlier work
PI5P4Kα [5] = conditions: bioluminescence assay; cited from earlier work
PI5P4Kγ-WT [6] = target: T4, PI5P4Kγ-WT; experiment: InCell Pulse cellular target engagement (thermal stabilisation) in HEK293 cells; assay type: cell-based; conditions: InCell Pulse, new data
Protocol: The binding of compounds to PI5P4Kγ in intact cells was assessed using an InCell Pulse thermal stabilisation assay (DiscoverX). […] The plate was then incubated for 60 min in the dark prior to luminescence reading using a Pherastar FSX plate reader (BMG Labtech).
as §1

PI5P4Kα [7] = tested on: PI5P4Kα; set-up: method as in ref 23 (a number printed in a supplementary file, which may have a reference list of its own: not looked up in the article's list); conditions: KINOMEscan @ 10 μM; cited from earlier work
PI5P4Kβ = target: T5, PI5P4Kβ (Homo sapiens, UniProt P78356); set-up: method as in ref 23 (a number printed in a supplementary file, which may have a reference list of its own: not looked up in the article's list); conditions: KINOMEscan @ 10 μM; cited from earlier work
T5 sequence (P78356 1-416): T3 sequence (P78356 1-416)

PI5P4Kγ [8] = tested on: PI5P4Kγ; set-up: method as in ref 30 (1), ref 23 (2); conditions: 32P-ATP/PI5P incorporation; ref 30 (1), ref 23 (2); cited from earlier work
Caco-2 cell permeability = assay type: in vitro ADME; conditions: human; for Papp A→B at 1 h, 10 µM: Caco-2, apical-to-basolateral
Protocol: Permeability: bi-directional Caco-2 cell permeability was performed by Charles River Laboratories Inc. (ADME-SOP-49). Briefly, compounds were administered at 10 µM (1% DMSO final) to the apical or basolateral side of a polarised Caco-2 cell monolayer, then incubated at 37 °C for 60 minutes before appearance on the opposite side of the monolayer was determined by mass spectrometry. The efflux ratio (ER) is calculated from the ratio of B-A […]

[9] = mutant PI5P4Kγ+ construct, read-out: PI5P4Kγ+ pIC50 (converted)
[10] = new data, read-out: PI5P4Kγ+ IC50

Structure (SMILES) | PI5P4Kα pIC50 (PI5P4Kα-WT) | IC50 (PI5P4Kγ+; [9]) [µM] | PI5P4Kβ pIC50 (PI5P4Kβ-WT) | ΔTm at 63 µM (PI5P4Kγ-WT [1]) [°C] | solubility at 2 h (Kinetic solubility) [µM] | fraction unbound at 4 h, 10 µM (Plasma protein binding) | half-life at 1 µM [3] [min] | other results
Cc1ccccc1-c1nc(NCc2cccs2)c2ccccc2n1 [Compound 7] | <4.3 | > 31.6 | <4.6 | 2.7 |  |  |  | 
FC(F)(F)c1ccccc1-c1nc(NCc2ccccn2)c2cccnc2n1 [Compound 38] | <4.3 |  | <4.6 |  | 6 (≈ 2.29 µg/mL) | 0.01 | 100 | chromatographic logD [2]: 3.2
Cc1nc(CNc2ncnc3ccc(-c4ccc5c(c4)OCO5)cc23)cs1 [ML197, reference compound] |  | 3.98 |  |  |  |  |  | IC50 (PI5P4Kα-WT): > 50.1 µM; PI5P4Kγ pKD (PI5P4Kγ [4]): 6.6
COc1ccccc1-c1nc(NCc2cccs2)c2ccccc2n1 [Compound 8] | <4.6 | > 50.1 | <4.6 | 0.1 |  |  |  | 
CC(=O)c1c(C)c2cnc(Nc3ccc(N4CCNCC4)cn3)nc2n(C2CCCC2)c1=O [Palbociclib, reference compound] |  |  |  |  |  |  |  | PI5P4Kγ pKD (PI5P4Kγ [4]): 5.8; IC50 (PI5P4Kβ-WT): > 25.1 µM
FC(F)(F)c1ccccc1-c1nc(NCC2CCCCC2)c2ccccc2n1 [Compound 10] | <4.3 | > 50.1 | <4.6 | -0.8 |  |  |  | 
CC(C)c1ccccc1-c1nc(NCc2ccccn2)c2ccccc2n1 [Compound 22] | <4.3 |  | <4.6 |  | < 5 | < 0.01 | 37 | chromatographic logD [2]: 5.7
CN(C)C/C=C/C(=O)Nc1ccc(C(=O)Nc2cccc(Nc3cc(-c4c[nH]c5ccccc45)ncn3)c2)cc1 [Compound 3, THZ-P1-2] |  |  |  |  |  |  |  | IC50 (PI5P4Kα [5]): 0.95 µM; IC50 (PI5P4Kγ+; [10]): 0.13 µM; IC50 (PI5P4Kγ-WT [6]): 1.3 µM
Cc1ccc(-n2ccc3c(Nc4cccc(NC(=O)c5ccc(NC(=O)/C=C/CN(C)C)cc5)c4)ncnc32)cc1 [Compound 4] |  |  |  |  |  |  |  | IC50 (PI5P4Kα [5]): 1.3 µM
Cn1nnnc1Sc1ncnc2scc(-c3cccc(S(C)(=O)=O)c3)c12 [Compound 2, NCT-504] |  |  |  |  |  |  |  | IC50 (PI5P4Kα-WT): 2 µM; IC50 (PI5P4Kγ+; [10]): > 50 µM; PI5P4Kα % inh (PI5P4Kα [7]): <35% inh @ 10 uM (KINONMEscan); PI5P4Kβ % inh (PI5P4Kβ): <65% inh @ 10 uM (KINONMEscan); IC50 (PI5P4Kγ [8]): 16 µM; IC50 (PI5P4Kγ-WT [6]): > 50 µM; IC50 (PI5P4Kβ-WT): > 25 µM
FC(F)(F)c1ccccc1-c1nc(NCc2ccccn2)c2ccccc2n1 [Compound 14] | <4.3 | 3.16 | <4.6 | 6.3 | 9 (≈ 3.42 µg/mL) | < 0.01 | 31 | Papp A→B at 1 h, 10 µM (Caco-2 cell permeability): 850 nm/s
Cc1nc(CN(C)c2ncnc3ccc(-c4ccc5c(c4)OCO5)cc23)cs1 [ML106, reference compound] |  | 10 |  |  |  |  |  | IC50 (PI5P4Kα-WT): > 50.1 µM; PI5P4Kγ pKD (PI5P4Kγ [4]): 6.4
Cc1cnc(-c2ccccc2C(F)(F)F)nc1NCc1ccccn1 [Compound 35] | <4.3 | 10 | <4.6 | 3.9 | 113 (≈ 38.9 µg/mL) | 0.03 | 41 | Papp A→B at 1 h, 10 µM (Caco-2 cell permeability): 1060 nm/s; efflux ratio at 1 h, 10 µM (Caco-2 cell permeability; Caco-2 efflux ratio (B-A/A-B), read-out: ER): 0.5; PI5P4Kγ+ LE (PI5P4Kγ+; ligand efficiency from PI5P4Kγ+ pIC50): 0.28; chromatographic logD [2]: 4.2
